In patent publication US12049450B2, “Pyridyloxy-carboxylate derivative and preparation method therefor, herbicidal composition, and use” (Qingdao Kingagroot Chemical Compound Co., Ltd., priority 2018, dated 2024):

Key:
Format in all cases: in vivo
Abutilon theophrasti = experiment: Post-emergence test experiment (greenhouse pot, spray at 2-3 leaf stage); details: 1000 g/ha; post-emergence spray at 2-3 leaf stage; assessed after 3 weeks; fresh weight inhibition rate
Method in brief: (§1)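 Activity graded levels 0-5 by fresh-weight inhibition (level 5 above 85%, level 0 below 5%), assessed 3 weeks after treatment. Plants grown in greenhouse pots were sprayed post-emergence at 2-3 leaves using acetone/tween-80 solutions with methyl oleate synergist (1.5 L/ha).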

Cyperus iria = experiment: as above; details: 600 g/ha
Method in brief: as §1

Digitaria sanguinalis = experiment: as above; details: for Activity level (growth inhibition rate) Digitaria sanguinalis: 1000 g/ha, post-emergence spray at 2-3 leaf stage, assessed after 3 weeks, fresh weight inhibition rate
Method in brief: as §1

Echinochloa crusgalli = experiment: as above; details: for Activity level (growth inhibition rate) Echinochloa crusgalli: 1000 g/ha, post-emergence spray at 2-3 leaf stage, assessed after 3 weeks, fresh weight inhibition rate
Method in brief: as §1

Galium spurium = experiment: as above; details: 1000 g/ha; post-emergence spray at 2-3 leaf stage; assessed after 3 weeks; fresh weight inhibition rate
Method in brief: as §1

Indica rice = experiment: as above; details: 600 g/ha
Method in brief: as §1

Japonica rice = experiment: as above; details: 600 g/ha
Method in brief: as §1

Monochoria vaginalis [1] = experiment: as above; details: 1000 g/ha; post-emergence spray at 2-3 leaf stage; assessed after 3 weeks; fresh weight inhibition rate
Method in brief: as §1

rice (japonica rice) = experiment: Transplanted rice safety evaluation in rice field soil pot; details: 1000 g/ha, 21 days after treatment
Text: The activity level standard of harmful plants destruction (i. e. growth inhibition rate) is as follows: • Level 5: the growth inhibition rate is greater than 85%; • Level 4: the growth inhibition rate is equal to or greater than 60% and less than 85%; • Level 3: the growth inhibition rate is equal to or greater than 40% and less than 60%; • Level 2: the growth inhibition rate is equal to or greater than 20% and less than 40%; • Level 1: the growth inhibition rate is equal to or greater than 5% and less than 20%; • Level 0: the growth inhibition rate is less than 5%;
Transplanted rice safety evaluation and weed control effect evaluation in rice field:
In addition, the rice field soil that loaded into the 1/1,000,000 ha pot was leveled to keep water storage at 3-4 cm depth. The 3-leaf stage rice (japonica rice) was transplanted at 3 cm of transplanting depth the next day. The compound of the present invention was treated by the same way after 5 days of transplantation.
The fertility condition of Monochoria vaginalis 14 days and rice 21 days after the treatment of the compound of the invention with the naked eye.

Monochoria vaginalis [2] = experiment: Weed control effect evaluation in rice field soil pot; details: paddy pot, 1000 g/ha, 14 days after treatment; resistant to pyrazosulfuron-ethyl and penoxsulam
Soybean = experiment: Spray drift test, application by unmanned gyroplane, soybean field at 10 meters; details: 600 g/ha, gyroplane at 1 m, gentle breeze
Protocol: Broadleaf crops are very sensitive to hormonal herbicides, therefore crop injuries are more likely to occur in case of spray drifting. Tests were conducted in gentle breeze for the compounds of the present invention. The formulation of the compounds of the present invention was applied by DJI unmanned gyroplane with application height of 1 m and water volume of 20 kg/ha. The use rate was 600 g/ha. The active ingredient was dissolved by acetone and diluted to aqueous solution of Tween 80. There's a soybean field at 10 meters from the application area and the height of soybean plants were about 15 cm at the application time.

Echinochloa phyllopogon = experiment: Post-emergence test experiment (greenhouse pot, spray at 2-3 leaf stage); details: 600 g/ha
Method in brief: as §1

Leptochloa chinensis = experiment: as above; details: 600 g/ha
Method in brief: as §1

Setaria viridis = experiment: as above; details: 600 g/ha
Method in brief: as §1

[3] = post-emergence comparison, 600 g/ha

Row | SMILES | Activity level (growth inhibition rate) Abutilon theophrasti (Abutilon theophrasti) | Cyperus iria, activity level (growth inhibition rate) (Cyperus iria; post-emergence, after 3 weeks, from Hunan, resistant to ALS inhibitor herbicides) | Activity level (growth inhibition rate) Digitaria sanguinalis (Digitaria sanguinalis) | Activity level (growth inhibition rate) Echinochloa crusgalli (Echinochloa crusgalli) | Echinochloa crusgalli, activity level (growth inhibition rate) (Echinochloa crusgalli; post-emergence, 600 g/ha, after 3 weeks, from Hunan, resistant to ALS inhibitor herbicides) | Activity level (growth inhibition rate) Galium spurium (Galium spurium) | Indica rice, activity level (growth inhibition rate) (Indica rice; post-emergence, after 3 weeks) | Japonica rice, activity level (growth inhibition rate) (Japonica rice; post-emergence, after 3 weeks) | Activity level (growth inhibition rate) Monochoria Vaginalis (Monochoria vaginalis [1]) | Rice, safety level (rice (japonica rice)) | Monochoria Vaginalis, activity level (Monochoria vaginalis [2]) | Soybean, injury level by spray drift (Soybean) | Cyperus iria, activity level (comparison test) (Cyperus iria; post-emergence comparison) | Digitaria sanguinalis, activity level (comparison test) (Digitaria sanguinalis; [3]) | Echinochloa crusgalli, activity level (comparison test) (Echinochloa crusgalli; [3]) | Echinochloa phyllopogon, activity level (comparison test) (Echinochloa phyllopogon) | Indica rice, activity level (comparison test) (Indica rice; post-emergence comparison) | Japonica rice, activity level (comparison test) (Japonica rice; post-emergence comparison) | Leptochloa chinensis, activity level (comparison test) (Leptochloa chinensis) | Setaria viridis, activity level (comparison test) (Setaria viridis)
1 | CC(Oc1nc(F)c(Cl)c(N)c1Cl)C(=O)OCc1ccccc1 (stereo not shown) [Compound 4] | 5 (Level 5: the growth inhibition rate is greater than 85%) | 5 (Level 5: the growth inhibition rate is greater than 85%) | 5 (Level 5: the growth inhibition rate is greater than 85%) | 5 (Level 5: the growth inhibition rate is greater than 85%) | 5 (Level 5: the growth inhibition rate is greater than 85%) | 5 (Level 5: the growth inhibition rate is greater than 85%) | 0 (Level 0: the growth inhibition rate is less than 5%) | 0 (Level 0: the growth inhibition rate is less than 5%) | 5 (Level 5: the growth inhibition rate is greater than 85%) | 0 (Level 0: the growth inhibition rate is less than 5%) | 5 (Level 5: the growth inhibition rate is greater than 85%) | 0 (Level 0: the growth inhibition rate is less than 5%) | – | – | – | – | – | – | – | –
2 | CC(Oc1nc(F)c(Cl)c(N)c1Cl)C(=O)OCc1c(F)c(F)c(F)c(F)c1F (stereo not shown) [Compound 238] | 5 (Level 5: the growth inhibition rate is greater than 85%) | – | 5 (Level 5: the growth inhibition rate is greater than 85%) | 5 (Level 5: the growth inhibition rate is greater than 85%) | – | 5 (Level 5: the growth inhibition rate is greater than 85%) | – | – | 5 (Level 5: the growth inhibition rate is greater than 85%) | – | – | – | 5 (Level 5: the growth inhibition rate is greater than 85%) | 5 (Level 5: the growth inhibition rate is greater than 85%) | 5 (Level 5: the growth inhibition rate is greater than 85%) | 4 (Level 4: the growth inhibition rate is equal to or greater than 60% and less than 85%) | 0 (Level 0: the growth inhibition rate is less than 5%) | 0 (Level 0: the growth inhibition rate is less than 5%) | 5 (Level 5: the growth inhibition rate is greater than 85%) | 5 (Level 5: the growth inhibition rate is greater than 85%)
